pIC50: −log10 of the molar value. Read-outs that look alike come from different tables or passages of the source. Marks after values point to notes of the source that are not given here.
Biological target: T1, mAChR M1 (UniProt P11229)
T1 sequence (P11229 1-460): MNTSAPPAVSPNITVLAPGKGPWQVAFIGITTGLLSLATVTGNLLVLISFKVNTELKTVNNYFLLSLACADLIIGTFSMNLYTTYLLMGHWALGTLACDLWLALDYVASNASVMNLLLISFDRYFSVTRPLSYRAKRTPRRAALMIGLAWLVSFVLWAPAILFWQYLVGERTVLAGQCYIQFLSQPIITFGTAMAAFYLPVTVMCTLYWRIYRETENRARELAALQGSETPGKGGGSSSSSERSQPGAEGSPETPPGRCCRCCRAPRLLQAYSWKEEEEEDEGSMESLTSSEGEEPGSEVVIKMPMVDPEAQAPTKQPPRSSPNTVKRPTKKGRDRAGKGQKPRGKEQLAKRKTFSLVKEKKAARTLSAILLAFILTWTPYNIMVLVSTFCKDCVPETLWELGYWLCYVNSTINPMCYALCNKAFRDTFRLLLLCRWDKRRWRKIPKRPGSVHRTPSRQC
Experiment: mAChR M1 cell-based functional assay (calcium mobilization, antagonist mode)
From the text: Chinese hamster ovary (CHO-K1) cells stably expressing rat (r)M1 were purchased from the American Type Culture Collection and cultured according to their indicated protocol. CHO cells stably expressing human (h)M2, hM3, and hM5 were described previously (Levey, et al., 1991); hM1 and hM4 cDNAs were purchased from Missouri S&T cDNA Resource; rM4 cDNA was provided by T. I. Bonner (National Institutes of Health, Bethesda, Md.). rM2 and rM3 were cloned from a rat brain cDNA library and sequence verified. hM1, rM2, rM3, hM4, and rM4 cDNAs were used to stably transfect CHO-K1 cells purchased from the American Type Culture Collection using Lipofectamine-2000. To make stable rM2, hM2, rM3, hM4, and rM4 cell lines for use in calcium mobilization assays, these cells also were stably transfected with a chimeric G-protein (Gqi5) (provided by B. R. Conklin, University of California, San Francisco) using Lipofectamine 2000. rM1, hM1, rM3, hM3, rM5, and hM5 cells were grown in Ham's F-12 medium containing 10% heat-inactivated fetal bovine serum (FBS), 20 mM HEPES, and 50 μg/mL G418 sulfate. rM2-Gqi5, hM2-Gqi5, and hM4-Gqi5 cells were grown in the same medium also containing 500 μg/mL Hygromycin B. Stable rM4-Gqi5 cells were grown in DMEM containing 10% heat-inactivated FBS, 20 mM HEPES, 400 μg/mL G418 sulfate, and […].
For high throughput measurement of antagonist inhibited increases in intracellular calcium, CHO-K1 cells stably expressing muscarinic receptors were plated in growth medium lacking G418 and hygromycin at 15,000 cells/20 μL/well in Greiner 384-well black-walled, tissue culture (TC)-treated, clear-bottom plates (VWR). Cells were incubated overnight at 37° C. and 5% CO2. The next day, cells were washed using an ELX 405 (BioTek) with four washes (80 μL) of assay buffer then aspirated to 20 μL. Next, 20 μL of 16 μM Fluo-4/acetoxymethyl ester (Invitrogen, Carlsbad, Calif.) prepared as a 2.3 mM stock in DMSO and mixed in a 1:1 ratio with 10% (w/v) Pluronic F-127 and diluted in assay buffer was added to the wells and the cell plates were incubated for 50 min at 37° C. and 5% CO2. Dye was removed by washing with the ELX 405 (four 80 μL washes of assay buffer) then aspirated to 20 μL. Compound master plates were formatted in an 11 point CRC format (1:3 dilutions) in 100% DMSO with a starting concentration of 10 mM using the BRAVO liquid handler (Agilent). Test compound CRCs were then transferred to daughter plates (240 nL) using the Echo acoustic plate reformatter (Labcyte, Sunnyvale, Calif.) and then diluted into assay buffer (40 μL) to a 2× stock using a Thermo Fisher Combi (Thermo Fisher Scientific, Waltham, Mass.).
Calcium flux was measured using the Functional Drug Screening System (FDSS) 6000 (Hamamatsu Corporation, Tokyo, Japan) as an increase in the fluorescent static ratio. Compounds were applied to cells (20 μL, 2×) using the automated system of the FDSS 6000 at 4 s into the 300 s protocol and the data were collected at 1 Hz. At 144 s into the 300 s protocol, 10 μL of an EC20 concentration of the muscarinic receptor agonist acetylcholine was added (5×), followed by the addition of 12 μL an EC80 concentration of acetylcholine at the 230 s time point (5×). Agonist activity was analyzed as a concentration-dependent increase in calcium mobilization upon compound addition. Positive allosteric modulator activity was analyzed as a concentration-dependent increase in the EC20 acetylcholine response. Antagonist activity was analyzed as a concentration-dependent decrease in the EC80 acetylcholine response. Concentration-response curves were generated using a four-parameter logistical equation in XLfit curve fitting software (IDBS, Bridgewater, N.J.) for Excel (Microsoft, Redmond, Wash.) or Prism (GraphPad Software, Inc., San Diego, Calif.).
The calcium mobilization assay was used to determine “potency”.

[1] = activity remaining at top dose of 30 μM test compound, as percentage of the response to an approx. EC80 concentration of ACh
[2] = concentration of antagonist decreasing calcium flux by 50%; EC80 acetylcholine response; CHO-K1 cells expressing mAChR M1; read-out: Potency (IC50)
[3] = dash = baseline or about zero remaining activity (table footnote)

SMILES	Remaining Activity (%) [1]	pIC50 [2]	Remaining Activity (%) [3]	pIC50 (read-out: Potency (IC50); concentration of antagonist decreasing calcium flux by 50%; EC80 acetylcholine response; CHO-K1 cells expressing mAChR M1)
Cn1ccc2cc(S(=O)(=O)N3CC(C(=O)N4CCN(c5ccncc5)CC4)C3)ccc21 [B50]	59%	< 5.00		
Cn1cc(S(=O)(=O)N2CC(C(=O)N3CC4CN(c5ccncc5)CC4C3)C2)cn1 (stereo not shown) [B83]	≧80%	< 5.00		
O=C(C1CN(S(=O)(=O)c2cccnc2Cl)C1)N1CC2CN(c3ccncc3)CC2C1 (stereo not shown) [B54]		6.03	— (Unless otherwise indicated with a numerical value, the percent remaining activity is baseline or about zero, i.e. as indicated by “—”)	
O=C(C1CN(S(=O)(=O)c2ccc(N3CCOCC3)nc2)C1)N1CCN(c2ccncc2)CC1 [B74]	≧80%	< 5.00		
Cc1nc(C(F)(F)F)c(S(=O)(=O)N2CC(C(=O)N3CCN(c4ccncc4)CC3)C2)s1 [B27]		5.70	— (Unless otherwise indicated with a numerical value, the percent remaining activity is baseline or about zero, i.e. as indicated by “—”)	
O=C(C1CN(S(=O)(=O)c2ccc(C(F)(F)F)nc2)C1)N1CCN(c2ccncc2)CC1 [B41]	37%	< 5.00		
O=C(C1CN(S(=O)(=O)c2ccc(Cl)nc2)C1)N1CCN(c2ccncc2)CC1 [B12]		6.46	— (Unless otherwise indicated with a numerical value, the percent remaining activity is baseline or about zero, i.e. as indicated by “—”)	
O=C(C1CN(S(=O)(=O)c2cccc3nonc23)C1)N1CC2CN(c3ccncc3)CC2C1 (stereo not shown) [B56]		6.02	— (Unless otherwise indicated with a numerical value, the percent remaining activity is baseline or about zero, i.e. as indicated by “—”)	
Cn1ccc(-c2ccccc2S(=O)(=O)N2CC(C(=O)N3CCN(c4ccncc4)CC3)C2)n1 [B64]	≧80%	< 5.00		
Cn1cc(S(=O)(=O)N2CC(C(=O)N3CCN(c4ccncc4)CC3)C2)cn1 [B18]		6.13	— (Unless otherwise indicated with a numerical value, the percent remaining activity is baseline or about zero, i.e. as indicated by “—”)	
Cn1cnc(S(=O)(=O)N2CC(C(=O)N3CCN(c4ccncc4)CC3)C2)c1 [B66]	≧80%	< 5.00		
O=C(C1CN(S(=O)(=O)c2cccc3cnccc23)C1)N1CCN(c2ccncc2)CC1 [B1]			— (Unless otherwise indicated with a numerical value, the percent remaining activity is baseline or about zero, i.e. as indicated by “—”)	
Cc1cc2c(S(=O)(=O)N3CC(C(=O)N4CCN(c5ccncc5)CC4)C3)cccc2cn1 [B22]			— (Unless otherwise indicated with a numerical value, the percent remaining activity is baseline or about zero, i.e. as indicated by “—”)	
O=C(C1CN(S(=O)(=O)c2cccc(Cl)c2F)C1)N1CCN(c2ccncc2)CC1 [B34]	11%			
O=C(C1CN(S(=O)(=O)c2cccc3cnccc23)C1)N1CCN(c2ccnc(Cl)c2)CC1 [B2]		7.32	— (Unless otherwise indicated with a numerical value, the percent remaining activity is baseline or about zero, i.e. as indicated by “—”)	
O=C(C1CN(S(=O)(=O)c2cccc3nonc23)C1)N1CCC(O)(c2ccncc2)CC1 [B61]	≧80% **	< 5.00		

SMILES	Remaining Activity (%) [1]	pIC50 [2]	Remaining Activity (%) [3]	pIC50 (read-out: Potency (IC50); concentration of antagonist decreasing calcium flux by 50%; EC80 acetylcholine response; CHO-K1 cells expressing mAChR M1)
O=C(C1CN(S(=O)(=O)c2cccc(F)c2)C1)N1CCN(c2ccncc2)CC1 [B23]		5.82	— (Unless otherwise indicated with a numerical value, the percent remaining activity is baseline or about zero, i.e. as indicated by “—”)	
O=C(C1CN(S(=O)(=O)c2ccc3c(c2)CCO3)C1)N1CCN(c2ccncc2)CC1 [B5]		7.02	— (Unless otherwise indicated with a numerical value, the percent remaining activity is baseline or about zero, i.e. as indicated by “—”)	
O=C(C1CN(S(=O)(=O)c2cccc3cnccc23)C1)N1CCN(c2ccncn2)CC1 [B20]			— (Unless otherwise indicated with a numerical value, the percent remaining activity is baseline or about zero, i.e. as indicated by “—”)	
O=C(C1CN(S(=O)(=O)c2cccc(Cl)c2Cl)C1)N1CCN(c2ccncc2)CC1 [B16]		6.21	— (Unless otherwise indicated with a numerical value, the percent remaining activity is baseline or about zero, i.e. as indicated by “—”)	
O=C(C1CN(S(=O)(=O)c2cccc(-n3cnnn3)c2)C1)N1CCN(c2ccncc2)CC1 [B72]	≧80%	< 5.00		
O=C(NC1CCN(c2ccccc2)C1)C1CN(S(=O)(=O)c2cccc3cnccc23)C1 (stereo not shown) [B82]	≧80%	< 5.00		
O=C(C1CN(S(=O)(=O)c2ccc3c(c2)OCO3)C1)N1CCN(c2ccncc2)CC1 [B9]			— (Unless otherwise indicated with a numerical value, the percent remaining activity is baseline or about zero, i.e. as indicated by “—”)	
O=C(C1CN(S(=O)(=O)c2ccc3[nH]c(=O)sc3c2)C1)N1CCN(c2ccncc2)CC1 [B70]	≧80%	< 5.00		
O=C(C1CN(S(=O)(=O)c2cccc(Cl)c2)C1)N1CCN(c2ccncc2)CC1 [B36]	27%			
CC(C)(C)CS(=O)(=O)N1CC(C(=O)N2CC3CN(c4ccncc4)CC3C2)C1 (stereo not shown) [B55]	56%			< 5.00
O=C(C1CN(S(=O)(=O)c2cccc(OC(F)(F)F)c2)C1)N1CCN(c2ccncc2)CC1 [B69]	≧80%	< 5.00		
O=C(C1CN(S(=O)(=O)c2ccc3c(c2)OCO3)C1)N1CC2CN(c3ccncc3)CC2C1 (stereo not shown) [B57]		6.02	— (Unless otherwise indicated with a numerical value, the percent remaining activity is baseline or about zero, i.e. as indicated by “—”)	
Cc1noc(C)c1S(=O)(=O)N1CC(C(=O)N2CCN(c3ccncc3)CC2)C1 [B25]		5.72	— (Unless otherwise indicated with a numerical value, the percent remaining activity is baseline or about zero, i.e. as indicated by “—”)	
O=C(C1CN(S(=O)(=O)c2cccc(F)c2)C1)N1CC2CN(c3ccncc3)CC2C1 (stereo not shown) [B59]		5.68	— (Unless otherwise indicated with a numerical value, the percent remaining activity is baseline or about zero, i.e. as indicated by “—”)	
Cc1cc(N2CCN(C(=O)C3CN(S(=O)(=O)c4cccc5cnccc45)C3)CC2)ccn1 [B6]		6.92	— (Unless otherwise indicated with a numerical value, the percent remaining activity is baseline or about zero, i.e. as indicated by “—”)	
O=C(C1CN(S(=O)(=O)c2ccc(OC(F)F)cc2)C1)N1CCN(c2ccncc2)CC1 [B63]	≧80%	< 5.00		
